Test results published in PMC11544713, “The Application of Untargeted Metabolomic Approaches for the Search of Common Bioavailable Metabolites in Human Plasma Samples from Lippia citriodora and Olea europaea Extracts” (Journal of Agricultural and Food Chemistry, 2024).

Experiment: Acute intervention: nutrikinetics of plasma metabolites after ingestion of O. europaea extract (untargeted HPLC-ESI-QTOF-MS)
Method: A total of 25 healthy individuals participated, with an average age of 27 ± 9 years and a mean body mass index (BMI) of 23 ± 3 kg/m^2. None of the participants were taking any medications or nutritional supplements nor did they have any chronic diseases or gastrointestinal issues. The sample size was established based on findings from previous bioavailability research.[14] All participants provided informed consent before participating in the study.
The intervention study was carried out at Miguel Hernández University. Following an overnight fast, the volunteers were categorized into the subsequent groups: a subgroup to evaluate the LC leaf extract (n = 8), another for the OE leaf extract (n = 8), and the placebo subgroup (n = 9). This was a double-blind study, in which sample collection and treatment were carried out uniformly across all three subgroups.
Water was provided ad libitum. Prior to the ingestion of the capsule, a nurse inserted a cannula into the ulnar vein of each volunteer’s nondominant arm, and blood samples were drawn into EDTA-coated tubes at baseline (t = 0). Blood samples were then collected at 0.5, 1, 2, 4, 6, 8, and 10 h after the consumption of the 500 mg capsule. Plasma was separated through centrifugation (10 min at 3000 rpm and 4 °C) and stored at −80 °C until further analysis.
Plasma samples were initially treated using a mixture of methanol and ethanol (50:50; v:v) to remove proteins, following previously reported protocols.[19] During the sample treatment, pooled quality controls (pooled-QC) were prepared by combining equal aliquots from each sample. These QC samples were processed by using the same protocols as the experimental biological samples.
A reversed-phase analytical C18 column (Agilent Zorbax Eclipse Plus, 1.8 μm, 4.6 × 150 mm^2) with a protective cartridge with the same packing was used. MS data were acquired in negative ionization mode, operating in full scan across a mass-to-charge ratio (m/z) range of 50–1700. The analytical method used was adapted from that described by Villegas-Aguilar et al.[19]
Metabolite nutrikinetics were studied using PKSolver, an add-in program for pharmacokinetic data analysis in Microsoft Excel. The time to reach the maximum concentration (observed Tmax) was calculated for each significant metabolite. As an untargeted metabolomic approach was used to detect the circulating metabolites, these were not quantified. Therefore, the maximum concentration (Cmax) and area under the curve (AUC) parameters were calculated in a relative way by using the deconvoluted chromatographic areas. […] Statistical differences were determined by unpaired t tests. All p values less than 0.05 were considered statistically significant.

[1] = 0.5 h after O. europaea extract
[2] = human plasma, 500 mg capsule of O. europaea (OE) extract, oral, mean ± SD

O=C(O)CCCCCCCCC(=O)O [decanedioic acid isomer 2, decanedioic acid]
mean chromatographic area in plasma, T0.5 [1]: 0 | mean chromatographic area in plasma, T1 (1 h after O. europaea extract): 0 | mean chromatographic area in plasma, T2 (2 h after O. europaea extract): 26 | mean chromatographic area in plasma, T4 (4 h after O. europaea extract): 47 | mean chromatographic area in plasma, T6 (6 h after O. europaea extract): 84 | mean chromatographic area in plasma, T8 (8 h after O. europaea extract): 38 | mean chromatographic area in plasma, T10 (10 h after O. europaea extract): 60 | Cmax: relative maximum plasma level [2]: 112 ± 11 relative chromatographic area | observed Tmax: time required to reach Cmax [2]: 6 ± 3 h

oleuropein aglycone glucuronide [oleuropein aglycone glucuronide isomer 1]
Cmax: relative maximum plasma level (human, in vivo, po, 500 mg): 244 ± 128 relative chromatographic area | observed Tmax: time required to reach Cmax (human, in vivo, po, 500 mg): 0.8 ± 0.2 h | mean chromatographic area in plasma, T0.5 (in vivo): 186 | mean chromatographic area in plasma, T1 (in vivo): 202 | mean chromatographic area in plasma, T2 (in vivo): 29 | mean chromatographic area in plasma, T4 (in vivo): 0 | mean chromatographic area in plasma, T6 (in vivo): 0 | mean chromatographic area in plasma, T8 (in vivo): 0 | mean chromatographic area in plasma, T10 (in vivo): 0

homovanillyl alcohol glucuronide [homovanillyl alcohol glucuronide isomer 1]
mean chromatographic area in plasma, T0.5 (0.5 h after O. europaea extract, listed as homovanillic alcohol glucuronide isomer 1): 274 | mean chromatographic area in plasma, T1 (1 h after O. europaea extract, listed as homovanillic alcohol glucuronide isomer 1): 503 | mean chromatographic area in plasma, T2 (2 h after O. europaea extract, listed as homovanillic alcohol glucuronide isomer 1): 372 | mean chromatographic area in plasma, T4 (4 h after O. europaea extract, listed as homovanillic alcohol glucuronide isomer 1): 183 | mean chromatographic area in plasma, T6 (6 h after O. europaea extract, listed as homovanillic alcohol glucuronide isomer 1): 66 | mean chromatographic area in plasma, T8 (8 h after O. europaea extract, listed as homovanillic alcohol glucuronide isomer 1): 26 | mean chromatographic area in plasma, T10 (10 h after O. europaea extract): 0 | Cmax: relative maximum plasma level [2]: 504 ± 154 relative chromatographic area | observed Tmax: time required to reach Cmax [2]: 1.1 ± 0.3 h

desoxy elenolic acid
Cmax: relative maximum plasma level (human, in vivo, po, 500 mg): 124 ± 24 relative chromatographic area | observed Tmax: time required to reach Cmax (human, in vivo, po, 500 mg): 1.1 ± 0.4 h | mean chromatographic area in plasma, T0.5 (in vivo): 56 | mean chromatographic area in plasma, T1 (in vivo): 123 | mean chromatographic area in plasma, T2 (in vivo): 35 | mean chromatographic area in plasma, T4 (in vivo): 0 | mean chromatographic area in plasma, T6 (in vivo): 0 | mean chromatographic area in plasma, T8 (in vivo): 0 | mean chromatographic area in plasma, T10 (in vivo): 0

COc1cc(C)cc(OC)c1OC [1,2,3-trimethoxy-5-methyl benzene]
mean chromatographic area in plasma, T0.5 [1]: 117 | mean chromatographic area in plasma, T1 (1 h after O. europaea extract): 221 | mean chromatographic area in plasma, T2 (2 h after O. europaea extract): 105 | mean chromatographic area in plasma, T4 (4 h after O. europaea extract): 0 | mean chromatographic area in plasma, T6 (6 h after O. europaea extract): 0 | mean chromatographic area in plasma, T8 (8 h after O. europaea extract): 0 | mean chromatographic area in plasma, T10 (10 h after O. europaea extract): 0 | Cmax: relative maximum plasma level [2]: 221 ± 72 relative chromatographic area | observed Tmax: time required to reach Cmax [2]: 1 ± 0 h

oleuropein aglycone glucuronide [oleuropein aglycone glucuronide isomer 2]
observed Tmax: time required to reach Cmax (human, in vivo, po, 500 mg): 0.9 ± 0.2 h | mean chromatographic area in plasma, T1 (in vivo): 482 | mean chromatographic area in plasma, T2 (in vivo): 197 | mean chromatographic area in plasma, T4 (in vivo): 24 | mean chromatographic area in plasma, T6 (in vivo): 0 | mean chromatographic area in plasma, T8 (in vivo): 0 | mean chromatographic area in plasma, T10 (in vivo): 0

OC[C@H]1O[C@@H](OCc2ccoc2)[C@H](O)[C@@H](O)[C@@H]1O (single isomer, unassigned; isomer 2) [3-furanmethanol glucoside isomer 2, 3-furanmethanol glucoside]
mean chromatographic area in plasma, T0.5 [1]: 625 | mean chromatographic area in plasma, T1 (1 h after O. europaea extract): 1234 | mean chromatographic area in plasma, T2 (2 h after O. europaea extract): 961 | mean chromatographic area in plasma, T4 (4 h after O. europaea extract): 483 | mean chromatographic area in plasma, T6 (6 h after O. europaea extract): 250 | mean chromatographic area in plasma, T8 (8 h after O. europaea extract): 113 | mean chromatographic area in plasma, T10 (10 h after O. europaea extract): 0 | Cmax: relative maximum plasma level [2]: 1234 ± 489 relative chromatographic area | observed Tmax: time required to reach Cmax [2]: 1 ± 0 h

C[C@]12CC[C@@H](O[C@@H]3O[C@H](C(=O)O)[C@@H](O)[C@H](O)[C@H]3O)C[C@@H]1CC[C@@H]1[C@@H]2C(=O)C[C@@]2(C)[C@H]1CC[C@]2(O)[C@@H](O)CO [cortolone-3-glucuronide]
mean chromatographic area in plasma, T0.5 [1]: 0 | mean chromatographic area in plasma, T1 (1 h after O. europaea extract): 0 | mean chromatographic area in plasma, T2 (2 h after O. europaea extract): 0 | mean chromatographic area in plasma, T4 (4 h after O. europaea extract): 160 | mean chromatographic area in plasma, T6 (6 h after O. europaea extract): 82 | mean chromatographic area in plasma, T8 (8 h after O. europaea extract): 63 | mean chromatographic area in plasma, T10 (10 h after O. europaea extract): 0 | Cmax: relative maximum plasma level [2]: 163 ± 88 relative chromatographic area | observed Tmax: time required to reach Cmax [2]: 4.4 ± 0.8 h

COc1cc(C(=O)O)ccc1OC1OC(C(=O)O)C(O)C(O)C1O (stereo not shown) [vanillic acid glucuronide]
mean chromatographic area in plasma, T0.5 [1]: 0 | mean chromatographic area in plasma, T1 (1 h after O. europaea extract): 37 | mean chromatographic area in plasma, T2 (2 h after O. europaea extract): 77 | mean chromatographic area in plasma, T4 (4 h after O. europaea extract): 63 | mean chromatographic area in plasma, T6 (6 h after O. europaea extract): 44 | mean chromatographic area in plasma, T8 (8 h after O. europaea extract): 22 | mean chromatographic area in plasma, T10 (10 h after O. europaea extract): 0 | Cmax: relative maximum plasma level [2]: 111 ± 48 relative chromatographic area | observed Tmax: time required to reach Cmax [2]: 4 ± 3 h

CC(=O)Oc1cc2c(c(C)c1OC(C)=O)CC=C1[C@@]2(C)CC[C@@]2(C)C3C[C@](C)(C(=O)O)CC[C@]3(C)CC[C@]12C (stereo partly shown) [dihydrocelastryl diacetate]
mean chromatographic area in plasma, T0.5 [1]: 0 | mean chromatographic area in plasma, T1 (1 h after O. europaea extract): 38 | mean chromatographic area in plasma, T2 (2 h after O. europaea extract): 150 | mean chromatographic area in plasma, T4 (4 h after O. europaea extract): 163 | mean chromatographic area in plasma, T6 (6 h after O. europaea extract): 81 | mean chromatographic area in plasma, T8 (8 h after O. europaea extract): 38 | mean chromatographic area in plasma, T10 (10 h after O. europaea extract): 20 | Cmax: relative maximum plasma level [2]: 239 ± 78 relative chromatographic area | observed Tmax: time required to reach Cmax [2]: 3 ± 1 h

hydroxytyrosol sulfate [hydroxytyrosol sulfate isomer 1]
mean chromatographic area in plasma, T0.5 [1]: 280 | mean chromatographic area in plasma, T1 (1 h after O. europaea extract): 323 | mean chromatographic area in plasma, T2 (2 h after O. europaea extract): 178 | mean chromatographic area in plasma, T4 (4 h after O. europaea extract): 328 | mean chromatographic area in plasma, T6 (6 h after O. europaea extract): 118 | mean chromatographic area in plasma, T8 (8 h after O. europaea extract): 202 | mean chromatographic area in plasma, T10 (10 h after O. europaea extract): 45 | Cmax: relative maximum plasma level [2]: 593 ± 382 relative chromatographic area | observed Tmax: time required to reach Cmax [2]: 3 ± 3 h

COc1cc(CCC(=O)O)ccc1O[C@@H]1O[C@H](C(=O)O)[C@@H](O)[C@H](O)[C@H]1O [dihydroferulic acid 4-O-glucuronide]
Cmax: relative maximum plasma level (human, in vivo, po, 500 mg): 171 ± 110 relative chromatographic area | observed Tmax: time required to reach Cmax (human, in vivo, po, 500 mg): 2 ± 2 h | mean chromatographic area in plasma, T0.5 (in vivo): 74 | mean chromatographic area in plasma, T1 (in vivo): 114 | mean chromatographic area in plasma, T2 (in vivo): 94 | mean chromatographic area in plasma, T4 (in vivo): 113 | mean chromatographic area in plasma, T6 (in vivo): 109 | mean chromatographic area in plasma, T8 (in vivo): 74 | mean chromatographic area in plasma, T10 (in vivo): 41

hydroxytyrosol glucuronide [hydroxytyrosol glucuronide isomer 1]
mean chromatographic area in plasma, T0.5 [1]: 724 | mean chromatographic area in plasma, T1 (1 h after O. europaea extract): 955 | mean chromatographic area in plasma, T2 (2 h after O. europaea extract): 463 | mean chromatographic area in plasma, T4 (4 h after O. europaea extract): 158 | mean chromatographic area in plasma, T6 (6 h after O. europaea extract): 61 | mean chromatographic area in plasma, T8 (8 h after O. europaea extract): 28 | mean chromatographic area in plasma, T10 (10 h after O. europaea extract): 0 | Cmax: relative maximum plasma level [2]: 1002 ± 411 relative chromatographic area | observed Tmax: time required to reach Cmax [2]: 0.9 ± 0.2 h

O=C(Oc1cc(O)c2c(c1)O[C@H](c1cc(O)c(O)c(O)c1)[C@H](O)C2)c1cc(O)c(O)c(O)c1 [epigallocatechin 7-O-gallate]
mean chromatographic area in plasma, T0.5 [1]: 14 | mean chromatographic area in plasma, T1 (1 h after O. europaea extract): 126 | mean chromatographic area in plasma, T2 (2 h after O. europaea extract): 12 | mean chromatographic area in plasma, T4 (4 h after O. europaea extract): 0 | mean chromatographic area in plasma, T6 (6 h after O. europaea extract): 0 | mean chromatographic area in plasma, T8 (8 h after O. europaea extract): 0 | mean chromatographic area in plasma, T10 (10 h after O. europaea extract): 0 | Cmax: relative maximum plasma level [2]: 126 ± 30 relative chromatographic area | observed Tmax: time required to reach Cmax [2]: 1 ± 0 h

COc1cc(C=O)ccc1O[C@@H]1O[C@H](C(=O)O)[C@@H](O)[C@H](O)[C@H]1O [vanillin glucuronide]
Cmax: relative maximum plasma level (human, in vivo, po, 500 mg): 180 ± 66 relative chromatographic area | observed Tmax: time required to reach Cmax (human, in vivo, po, 500 mg): 1 ± 0 h | mean chromatographic area in plasma, T0.5 (in vivo): 60 | mean chromatographic area in plasma, T1 (in vivo): 180 | mean chromatographic area in plasma, T2 (in vivo): 121 | mean chromatographic area in plasma, T4 (in vivo): 40 | mean chromatographic area in plasma, T6 (in vivo): 11 | mean chromatographic area in plasma, T8 (in vivo): 0 | mean chromatographic area in plasma, T10 (in vivo): 0
